Measurements reported in patent US20230093099A1, “COMPOUNDS AND METHODS OF TREATING CANCERS” (CULLGEN (SHANGHAI), INC., priority 2019, published 2023).

These compounds were tested on RS4;11 cells (assay: Cell viability assay (CellTiter-Glo) in RS4;11 cells). Details: Homo sapiens, 72 h; RS4;11 cells; cell viability, 3 days, CellTiter-Glo; read-out: IC50.
Format: cell-based
Outline: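 Three-day compound treatment of RS4;11 ALL cells (5000/well, 3-fold dilution series of 8 or 12 points), with IC50 from a nonlinear least-squares fit to CellTiter-Glo viability data.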

Row | SMILES | IC50 [µM]
1 | Cc1ncsc1-c1ccc(CNC(=O)[C@@H]2C[C@@H](O)CN2C(=O)[C@@H](NC(=O)CCOCCOCCOCCOCCOCCNC(=O)CN2CCC(n3cc(-c4cnc5cccc(-c6cc(F)c(CN7CCOCC7)c(F)c6)c5n4)cn3)CC2)C(C)(C)C)cc1 [JA-159, (2S,4R)-1-((S)-23-(tert-Butyl)-1-(4-(4-(8-(3,5-difluoro-4-(morpholinomethyl)phenyl)quinoxalin-2-yl)-1H-pyrazol-1-yl)piperidin-1-yl)-2,21-dioxo-6,9,12,15,18-pentaoxa-3,22-diazatetracosan-24-oyl)-4-hydroxy-N-(4-(4-methylthiazol-5-yl)benzyl)pyrrolidine-2-carboxamide] | > 10
2 | Cc1ncsc1-c1ccc(CNC(=O)[C@@H]2C[C@@H](O)CN2C(=O)[C@@H](NC(=O)CCOCCNC(=O)CN2CCC(n3cc(-c4cnc5cccc(-c6cc(F)c(CN7CCOCC7)c(F)c6)c5n4)cn3)CC2)C(C)(C)C)cc1 [JA-160, (2S,4R)-1-((S)-2-(3-(2-(2-(4-(4-(8-(3,5-Difluoro-4-(morpholinomethyl)phenyl)quinoxalin-2-yl)-1H-pyrazol-1-yl)piperidin-1-yl)acetamido)ethoxy)propanamido)-3,3-dimethylbutanoyl)-4-hydroxy-N-(4-(4-methylthiazol-5-yl)benzyl)pyrrolidine-2-carboxamide] | > 10
3 | Cc1ncsc1-c1ccc(CNC(=O)[C@@H]2C[C@@H](O)CN2C(=O)[C@@H](NC(=O)CCCCCCCCNC(=O)CN2CCC(n3cc(-c4cnc5cccc(-c6cc(F)c(CN7CCOCC7)c(F)c6)c5n4)cn3)CC2)C(C)(C)C)cc1 [JA-161, (2S,4R)-1-((S)-2-(9-(2-(4-(4-(8-(3,5-Difluoro-4-(morpholinomethyl)phenyl)quinoxalin-2-yl)-1H-pyrazol-1-yl)piperidin-1-yl)acetamido)nonanamido)-3,3-dimethylbutanoyl)-4-hydroxy-N-(4-(4-methylthiazol-5-yl)benzyl)pyrrolidine-2-carboxamide] | 2.37
4 | Cc1ncsc1-c1ccc(CNC(=O)[C@@H]2C[C@@H](O)CN2C(=O)[C@@H](NC(=O)CCOCCOCCNC(=O)CN2CCC(n3cc(-c4cnc5cccc(-c6cc(F)c(CN7CCOCC7)c(F)c6)c5n4)cn3)CC2)C(C)(C)C)cc1 [JA-162, (2S,4R)-1-((S)-14-(tert-Butyl)-1-(4-(4-(8-(3,5-difluoro-4-(morpholinomethyl)phenyl)quinoxalin-2-yl)-1H-pyrazol-1-yl)piperidin-1-yl)-2,12-dioxo-6,9-dioxa-3,13-diazapentadecan-15-oyl)-4-hydroxy-N-(4-(4-methylthiazol-5-yl)benzyl)pyrrolidine-2-carboxamide] | > 10
5 | Cc1ncsc1-c1ccc(CNC(=O)[C@@H]2C[C@@H](O)CN2C(=O)[C@@H](NC(=O)COCCOCCNC(=O)CN2CCC(n3cc(-c4cnc5cccc(-c6cc(F)c(CN7CCOCC7)c(F)c6)c5n4)cn3)CC2)C(C)(C)C)cc1 [JA-163, (2S,4R)-1-((S)-2-(tert-Butyl)-14-(4-(4-(8-(3,5-difluoro-4-(morpholinomethyl)phenyl)quinoxalin-2-yl)-1H-pyrazol-1-yl)piperidin-1-yl)-4,13-dioxo-6,9-dioxa-3,12-diazatetradecanoyl)-4-hydroxy-N-(4-(4-methylthiazol-5-yl)benzyl)pyrrolidine-2-carboxamide] | > 10
6 | Cc1ncsc1-c1ccc(CNC(=O)[C@@H]2C[C@@H](O)CN2C(=O)[C@@H](NC(=O)CCCCCNC(=O)CN2CCC(n3cc(-c4cnc5cccc(-c6cc(F)c(CN7CCOCC7)c(F)c6)c5n4)cn3)CC2)C(C)(C)C)cc1 [JA-164, (2S,4R)-1-((S)-2-(6-(2-(4-(4-(8-(3,5-Difluoro-4-(morpholinomethyl)phenyl)quinoxalin-2-yl)-1H-pyrazol-1-yl)piperidin-1-yl)acetamido)hexanamido)-3,3-dimethylbutanoyl)-4-hydroxy-N-(4-(4-methylthiazol-5-yl)benzyl)pyrrolidine-2-carboxamide] | > 10
